# Results as given in patent US7396839B2, “Crystalline forms of gatifloxacin” (Teva Pharmaceuticals USA, Inc., priority 2002, dated 2008).
# Columns and labels:
# [1] = storage at ambient temperature and pressure (crystalline form conversion); format: physicochemical
# [2] = heating of the crystalline form at about 50° C.; format: physicochemical; settings: heating at about 50° C.
# [3] = compared with the hemihydrate; cited from earlier work
# [4] = room temperature; among the forms of U.S. Pat. No. 6,413,969; cited from earlier work
# [5] = among the forms of U.S. Pat. No. 6,413,969; cited from earlier work
# [6] = prolonged (e.g. 2 months) storage at ambient temperature and pressure
smiles,measurement,setting,value
"COc1c(N2CCNC(C)C2)c(F)cc2c(=O)c(C(=O)O)cn(C3CC3)c12 (racemic) [form L, (±) 1-cyclopropyl-6-fluoro-1,4-dihydro-8-methoxy-7-(3-methyl-1-piperazinyl)-4-oxo-3-quinolinecarboxylic acid]",crystalline form after prolonged storage,[1]; [6],converts to form Ω
"COc1c(N2CCNC(C)C2)c(F)cc2c(=O)c(C(=O)O)cn(C3CC3)c12 (racemic) [form P, (±) 1-cyclopropyl-6-fluoro-1,4-dihydro-8-methoxy-7-(3-methyl-1-piperazinyl)-4-oxo-3-quinolinecarboxylic acid]",crystalline form after prolonged storage,[1]; prolonged (e.g. 1 month) storage at ambient temperature and pressure,converts to gatifloxacin sesquihydrate
same,crystalline form after heating,[2],results in gatifloxacin form T1
"COc1c(N2CCNC(C)C2)c(F)cc2c(=O)c(C(=O)O)cn(C3CC3)c12 (racemic) [form M, (±) 1-cyclopropyl-6-fluoro-1,4-dihydro-8-methoxy-7-(3-methyl-1-piperazinyl)-4-oxo-3-quinolinecarboxylic acid]",crystalline form after prolonged storage,[1]; [6],converts to form T2RP (hemihydrate)
"COc1c(N2CCNC(C)C2)c(F)cc2c(=O)c(C(=O)O)cn(C3CC3)c12 (stereo not shown) [sesquihydrate, gatifloxacin]",stability in manufacturing,[3],more stable
"COc1c(N2CCNC(C)C2)c(F)cc2c(=O)c(C(=O)O)cn(C3CC3)c12 (stereo not shown) [pentahydrate, gatifloxacin]",aqueous solubility,[4],lowest
same,thermodynamic stability,[5],most thermodynamically stable form
